Assay results as given in US20110086429A1, “METHODS AND DEVICES FOR DETECTING OZONE AND CARBONYL-CONTAINING COMPOUNDS” (SIGMA-ALDRICH CO., priority 2007, published 2011).
Converted amounts (≈) assume the structure as drawn.

Assay: Solubility in acetonitrile, DMSO and their mixtures
Format: physicochemical

Row | SMILES | solubility in DMSO (in words) (DMSO) | solubility in acetonitrile (in words) (acetonitrile) | solubility (organic solvent or mixture, acetonitrile, FIG. 3 at 25° C.)
1 | O=[N+]([O-])c1ccc(NN=Cc2ccncc2)c([N+](=O)[O-])c1 [pyridine-4-aldehyde 2,4-DNPhydrazone, pyridine-4-aldehyde 2,4-dinitrophenylhydrazone] | relatively high concentration | poor solubility | 
2 | O=Cc1ccncc1 [pyridine-4-aldehyde] |  |  | ~790 µM (≈ 84.6 µg/mL)
